The text below walks through data of publication PMC9853328, “Potent Platinum(IV) Prodrugs That Incorporate a Biotin Moiety to Selectively Target Cancer Cells” (Pharmaceutics, 2022).

The test system of experiment [1] is ADDP (subclone of A2780) versus A2780 ovarian cancer cell lines. Kind of experiment: Resistance factor, GI50 in ADDP/GI50 in A2780. Type of experiment: cell-based.
A further experiment concerns HT29 colon cancer cells. Further details: method as in earlier work. Conditions: MTT, same method, taken from the literature; ref [18],[46],[47]; read-out: GI50 ± SEM, HT29; cited from earlier work.
The subject of a further experiment is U87 glioblastoma cells. Further details: method as in earlier work. The following applies: MTT, same method, taken from the literature; ref [18],[46],[47]; read-out: GI50 ± SEM, U87; cited from earlier work.
Experiment [2] has as its system MCF-7 breast cancer cells. Further details: method as in earlier work. Conditions: MTT, same method, taken from the literature; ref [18],[46],[47]; read-out: GI50 ± SEM, MCF-7; cited from earlier work.
The test system of experiment [3] is A2780 ovarian cancer cells. Further details: method as in earlier work. The following applies: MTT, same method, taken from the literature; ref [18],[46],[47]; read-out: GI50 ± SEM, A2780; cited from earlier work.
The next experiment deals with H460 lung cancer cells. Further details: method as in earlier work. The following applies: MTT, same method, taken from the literature; ref [18],[46],[47]; read-out: GI50 ± SEM, H460; cited from earlier work.
Another experiment has as its system A431 skin cancer cells. Details: method as in earlier work. The following applies: MTT, same method, taken from the literature; ref [18],[46],[47]; read-out: GI50 ± SEM, A431; cited from earlier work.
For experiment [4], the system named is Du145 prostate cancer cells. Further details: method as in earlier work. Conditions: MTT, same method, taken from the literature; ref [18],[46],[47]; read-out: GI50 ± SEM, Du145; cited from earlier work.
Experiment [5] deals with BE2-C neuroblastoma cells. Details: method as in earlier work. The following applies: MTT, same method, taken from the literature; ref [18],[46],[47]; read-out: GI50 ± SEM, BE2-C; cited from earlier work.
Another experiment concerns SJ-G2 glioblastoma cells. Further details: method as in earlier work. Conditions: MTT, same method, taken from the literature; ref [18],[46],[47]; read-out: GI50 ± SEM, SJ-G2; cited from earlier work.
Experiment [6] deals with MIA pancreas cancer cells. Details: method as in earlier work. Conditions: MTT, same method, taken from the literature; ref [18],[46],[47]; read-out: GI50 ± SEM, MIA; cited from earlier work.
In experiment [7] the test system is non-cancerous MCF10A breast cell line. Details: method as in earlier work. Conditions: MTT, same method, taken from the literature; ref [18],[46],[47]; read-out: GI50 ± SEM, MCF10A; cited from earlier work.
For experiment [8], the system named is cisplatin-resistant ADDP ovarian (subclone of A2780) cancer cells. Details: method as in earlier work. The following applies: MTT, same method, taken from the literature; ref [18],[46],[47]; read-out: GI50 ± SEM, ADDP; cited from earlier work.

Structures are written as SMILES. Read-outs that look alike come from different tables or passages of the source.

Broadly, the GI50 is the concentration at which growth is held to half of that of the control. On to `Cc1c(C)c2ccc[n+]3c2c2c1ccc[n+]2[Pt-2]31[NH2+][C@H]2CCCC[C@@H]2[NH2+]1.[Cl-].[Cl-]` [56MESS(II)], for which the “Resistance factor (RF)” value in experiment [1] worked out at 0.692. The GI50 in the experiment with HT29 colon cancer cells is 15 ± 6.2 nM; with U87 glioblastoma cells it was 76 ± 8.7 nM; in experiment [2], 33 ± 12 nM; in [3] it was 39 ± 7.7 nM; in the experiment with H460 lung cancer cells, 28 ± 4.7 nM; with A431 skin cancer cells, 36 ± 11 nM. Also, the GI50 in experiment [4] was 10 ± 1.3 nM; in experiment [5], 86 ± 3 nM; in the experiment on SJ-G2 glioblastoma cells, 150 ± 6.7 nM; in experiment [6] it was 22 ± 0.88 nM; in [7] it was 25 ± 10 nM; in [8], 27 ± 4.1 nM.
On to `Cc1c(C)c2ccc[n+]3c2c2c1ccc[n+]2[Pt-2]31([OH])([OH])[NH2+][C@H]2CCCC[C@@H]2[NH2+]1.O=[N+]([O-])[O-].O=[N+]([O-])[O-]` [56MESS(IV)], for which, in experiment [1], the “Resistance factor (RF)” value was found to be 3.036. Further, the GI50 in the experiment with HT29 colon cancer cells is 36 ± 7.1 nM; in the experiment on U87 glioblastoma cells, 190 ± 23 nM; in experiment [2], 480 ± 140 nM; in experiment [3], 56 ± 7.1 nM; in the experiment with H460 lung cancer cells, 190 ± 150 nM; in the experiment on A431 skin cancer cells it was 120 ± 22 nM. Besides, the 50% growth inhibitory concentration (GI50) in experiment [4] was 15 ± 2.6 nM; in experiment [5], 240 ± 22 nM; with SJ-G2 glioblastoma cells, 210 ± 45 nM; in experiment [6], 43 ± 2.5 nM; in experiment [7] it was 61 ± 7.3 nM; in [8], 170 ± 120 nM.
Turning to `N.N.O=C([O-])C1(C(=O)[O-])CCC1.[Pt+2]` [Carboplatin, carboplatin], the concentration for 50% growth inhibition (GI50) is more than 50000 nM in the experiment with HT29 colon cancer cells; more than 50000 nM with U87 glioblastoma cells; more than 50000 nM in experiment [2]; 9200 ± 2900 nM in experiment [3]; 14000 ± 1000 nM in the experiment with H460 lung cancer cells; 24300 ± 2200 nM with A431 skin cancer cells. The GI50 in [4] was 14700 ± 1200 nM; in experiment [5], 18700 ± 1200 nM; with SJ-G2 glioblastoma cells it was 5700 ± 200 nM; in experiment [6] it was more than 50000 nM; in [7] it was more than 50000 nM; in [8], more than 50000 nM.
Turning to `N.N.[Cl][Pt][Cl]` [Cisplatin, cisplatin], the entries for the “Resistance factor (RF)” value in experiment [1] and in [1] (listed as cisplatin) were 28.00 and 28, respectively. In addition, the 50% growth inhibitory concentration (GI50) with HT29 colon cancer cells is 11300 ± 1900 nM; with U87 glioblastoma cells it was 3800 ± 1100 nM; in [2], 6500 ± 800 nM; in experiment [3], 1000 ± 100 nM; in the experiment with H460 lung cancer cells, 900 ± 200 nM; in the experiment with A431 skin cancer cells, 2400 ± 300 nM. For the same compound, the GI50 in experiment [4] was 1200 ± 100 nM; in experiment [5], 1900 ± 200 nM; in the experiment with SJ-G2 glioblastoma cells, 400 ± 100 nM; in [6], 7500 ± 1300 nM; in experiment [7], 5200 ± 520 nM; in experiment [8] it was 28000 ± 1700 nM.
Regarding `[Cl-].[Cl-].c1cc2ccc3ccc[n+]4c3c2[n+](c1)[Pt-2]41[NH2+][C@H]2CCCC[C@@H]2[NH2+]1` [PHENSS(II)], the “Resistance factor (RF)” value in experiment [1] was found to be 0.793. The GI50 in the experiment with HT29 colon cancer cells is 87 ± 27 nM; with U87 glioblastoma cells, 1200 ± 340 nM; in experiment [2], 250 ± 41 nM; in [3] it was 290 ± 37 nM; with H460 lung cancer cells it was 300 ± 32 nM; in the experiment on A431 skin cancer cells, 340 ± 100 nM. For the same compound, the concentration for 50% growth inhibition (GI50) was 110 ± 27 nM in experiment [4]; 390 ± 60 nM in experiment [5]; 440 ± 55 nM in the experiment with SJ-G2 glioblastoma cells; 240 ± 22 nM in experiment [6]; 240 ± 60 nM in experiment [7]; 230 ± 49 nM in [8].
As for `O=[N+]([O-])[O-].O=[N+]([O-])[O-].[OH][Pt-2]12([OH])([NH2+][C@H]3CCCC[C@@H]3[NH2+]1)[n+]1cccc3ccc4ccc[n+]2c4c31` [PHENSS(IV)], the “Resistance factor (RF)” value in experiment [1] is on record as 1.625. Moreover, the GI50 is 710 ± 300 nM in the experiment with HT29 colon cancer cells; 4900 ± 610 nM with U87 glioblastoma cells; 16000 ± 4500 nM in experiment [2]; 800 ± 84 nM in [3]; 1700 ± 200 nM in the experiment on H460 lung cancer cells; 4300 ± 530 nM in the experiment on A431 skin cancer cells. The GI50 is 310 ± 92 nM in experiment [4]; 3000 ± 530 nM in experiment [5]; 1700 ± 350 nM in the experiment on SJ-G2 glioblastoma cells; 3400 ± 2200 nM in [6]; 1700 ± 200 nM in [7]; 1300 ± 350 nM in [8].
